Values belong to the compound of their own block, whether it stands above or below them. Calls of active or inactive are those of the source. The rule behind the calls is not given here.
Legend:
[1] = tested on: DNA; assay: Binding affinity to calf thymus DNA; format: nucleic-acid assay; conditions: Bos taurus
[2] = tested on: Escherichia coli; assay: Induction of Escherichia coli pBR322 DNA cleavage assessed as conversion of supercoiled form into open circular form after 5 hrs by agarose gel electrophoresis in presence of Cu2+
[3] = tested on: Escherichia coli; assay: Induction of Escherichia coli pBR322 DNA cleavage assessed as conversion of supercoiled form into open circular form after 5 hrs by agarose gel electrophoresis in presence of Mg2+
[4] = tested on: Escherichia coli; assay: Induction of Escherichia coli pBR322 DNA cleavage assessed as conversion of supercoiled form into open circular form after 5 hrs by agarose gel electrophoresis in presence of Ni2+
[5] = tested on: Escherichia coli; assay: Induction of Escherichia coli pBR322 DNA cleavage assessed as conversion of supercoiled form into linear form after 5 hrs by agarose gel electrophoresis in presence of Cu2+
[6] = tested on: Escherichia coli; assay: Induction of Escherichia coli pBR322 DNA cleavage at 0.06 mM after 5 hrs by agarose gel electrophoresis in presence of Cu2+ and DMSO
[7] = tested on: Escherichia coli; assay: Induction of Escherichia coli pBR322 DNA cleavage at 0.08 mM after 5 hrs by agarose gel electrophoresis
[8] = tested on: DNA; assay: Binding affinity to calf thymus DNA in presence of Cu2+; format: nucleic-acid assay; conditions: Bos taurus
[9] = tested on: Escherichia coli; assay: Induction of Escherichia coli pBR322 DNA cleavage assessed as conversion of supercoiled form into open circular form after 5 hrs by agarose gel electrophoresis in presence of Mn2+
[10] = tested on: Escherichia coli; assay: Induction of Escherichia coli pBR322 DNA cleavage assessed as maximal catalytic rate constant at 0.12 mM by agarose gel electrophoresis in presence of Cu2+
[11] = tested on: Escherichia coli; assay: Induction of Escherichia coli pBR322 DNA cleavage at 0.01 to 0.08 mM after 5 hrs by agarose gel electrophoresis in presence of Cu2+
[12] = tested on: Escherichia coli; assay: Induction of Escherichia coli pBR322 DNA cleavage assessed as conversion of supercoiled form into open circular form after 5 hrs by agarose gel electrophoresis in presence of Zn2+
[13] = tested on: Escherichia coli; assay: Induction of Escherichia coli pBR322 DNA cleavage at Cu2+ to compound ratio >= 1 after 5 hrs by agarose gel electrophoresis
[14] = tested on: Escherichia coli; assay: Induction of Escherichia coli pBR322 DNA cleavage assessed as conversion of supercoiled form into open circular form after 5 hrs by agarose gel electrophoresis in presence of Co2+
[15] = tested on: Escherichia coli; assay: Induction of Escherichia coli pBR322 DNA cleavage at 0.06 mM after 5 hrs by agarose gel electrophoresis in presence of Cu2+ and t-BuOH
[16] = tested on: Escherichia coli; assay: Induction of Escherichia coli pBR322 DNA cleavage at 0.06 mM after 5 hrs by agarose gel electrophoresis in presence of Cu2+ and TMP
[17] = tested on: Escherichia coli; assay: Induction of Escherichia coli pBR322 DNA cleavage at 0.06 mM after 5 hrs by agarose gel electrophoresis in presence of Cu2+ and KI

- K [1]: 1.51 ×10⁴ /M
- Activity [2]: Active
- Activity [3]: inactive
- Activity [4]: inactive
- Activity [5]: Active
- Activity [6]: Active
- Activity [7]: inactive
- K [8]: 2.38 ×10⁴ /M
- Activity [9]: inactive
- Kmax [10]: 125 h⁻¹
- Activity [11]: Active
- Activity [12]: inactive
- Activity [13]: Active
- Activity [14]: inactive
- Activity [15]: Active
- Activity [16]: Active
- Activity [17]: inactive
Structure (SMILES): COc1ccc2cc3[n+](cc2c1OCCOCCOCCOCCOc1c(OC)ccc2cc4[n+](cc12)CCc1cc2c(cc1-4)OCO2)CCc1cc2c(cc1-3)OCO2

- K [1]: 8.99 ×10³ /M
Structure (SMILES): COc1ccc2cc3[n+](cc2c1OC)CCc1cc2c(cc1-3)OCO2

Structure (SMILES): COc1ccc2cc3[n+](cc2c1OCCCOc1c(OC)ccc2cc4[n+](cc12)CCc1cc2c(cc1-4)OCO2)CCc1cc2c(cc1-3)OCO2
- K [1]: 1.15 ×10⁵ /M
- Activity [2]: inactive

- K [1]: 1.46 ×10³ /M
- Activity [2]: inactive
Structure (SMILES): COCCOCCOCCOCCOc1c(OC)ccc2cc3[n+](cc12)CCc1cc2c(cc1-3)OCO2

— ChEMBL document CHEMBL3132853, “Facile synthesis of a polyether-tethered dimeric berberine as a highly effective DNA-cleaving agent in the presence of Cu(ii) ion” (Medchemcomm, 2013)
